Data reported in US20040058983A1, “Plan-derived and synthetic phenolic compounds and plant extracts, effective in the treatment and prevention of chlamydial infections” (priority 2000, published 2004).
Read-outs that look alike come from different tables or passages of the source.

What was measured:
[1] = system: Ca^2+ intake in the cell; test: Effect of the compounds on the calcium influx (Ca2+ intake) to the cell; format: cell-based; details: compound 20 μg/ml; − = decrease, + = increase
Excerpt: (§1) In the following Table I some of the preferred plant-derived phenolic compounds according to the present invention, the effect of the compounds on the calcium influx to the cell, the antioxidant effect as well as the chemical structure of the compounds are presented.

[2] = system: C. pneumoniae K7 strain (clinical isolate); test: Direct anti-chlamydial effect (inhibition of formation of inclusions), HL host cells; format: cell-based; details: Chlamydia pneumoniae, host cells incubated 1 day with compound before infection, read-out: Inhibition % of the DMSO control (pre-treated)
[3] = system: C. pneumoniae; test: Inhibition of the infectivity (chlamydiasidic effect), re-infection of new cells; format: cell-based; details: Chlamydia pneumoniae
Experimental: Inhibition of the Infectivity/C. pneumoniae
(§2) Solution to be used in the infection and containing chlamydiae particles is mixed throughout. The old nutrition liquid is aspirated away. By the infection the inoculum which has been stored at −70° C. is diluted to an IFU concentration of ca. 10^3 so that the volume of the solution is at least 200 μl/well on a 24-well plate. The cells are infected by centrifuging at 1600 rpm (550×g)/1 hr. The nutrition medium is aspirated away and changed to a maintenance medium containing cyclohexamide and also containing the studied compound (DMSO concentration 0.2%), 1 ml/well. The cells are incubated in a 5% CO2 atmosphere at +35° C. The cells infected with C. pneumoniae are incubated for 3 days. After 2-3 days the maintenance medium is removed and the cells washed with 1×1 ml of PBS. To the wells 200 μl of SPG are added for further infection, harvested with a pipette tip and transferred into tubes. This is used for infecting new cells in the same way as above to test the inhibition of infectivity (chlamydiasidic effect).
(§3) The nutrition medium, which is above the cover glass left for staining, is aspirated away. The infected cells are fixed on the cover glass with methanol for 10 min. The cover glass is removed from the well and -transferred onto a suitable fluorescein-conjugated monoclonal antibody on Parafilm in a moist chamber with the cell-containing side down. The cover glass is incubated for 30 min at +37° C. and washed twice with PBS and once with water. Finally it is dried. The cover glass is put with the cell-containing side down on an object glass containing a fixative (e.g. Mounting medium). When viewed under the fluorescent microscope, cell culture specimens infacted with chlamydiae show a characteristic apple-green fluorescence of inclusions against a red counterstained background.

[4] = system: C. pneumoniae; test: Direct anti-chlamydial effect of compounds and mixtures on C. pneumoniae (Example 5); format: cell-based; details: Chlamydia pneumoniae; 50 μM; read-out: Inhibition %
Experimental: Direct Anti-Chlamydial Effect of Plant-Derived Phenolic Compounds, Certain Synthetic Compounds and Mixtures on C. pneumoniae
The concentration used was 50 μM.
(§4) The cultivated HL cells are infected with C. pneumoniae EB's. The EB's which have invaded the cell are changed into the metabolically active reticulate body (RB) which are dividing by binary fission in the endosome vacuole or inclusion.
(§5) After a certain time (about 72 hr) the C. pneumoniae RB's are condensing back into EB's, after which the inclusions are broken, the host cells are broken and the EB's are liberated. In this method the intention is to verify the inclusions before the breaking up of the host cells.
(§6) On the day preceding the infection the host cells are inoculated on a 24-well plate: the cells are harvested by trypsinisation, they are suspended in ca. 5 ml of the nutrition liquid and counted in a Burker's chamber. Each well are seeded using a concentration of 250000-400000 cells/well for cultivation. Before the addition of the cells to the well is if necessary round cover glass (diameter 13 mm) put for staining. Nutrition liquid is added so that the volume is 1 ml/well. On the following day the cells are infected with the desired bacterium.
as §2, §3

[5] = Antioxidant effect, IC50 against DPPH; format: biochemical; details: read-out: IC50 [moles L^−1] against DPPH′
Excerpt: as §1

[6] = system: HL cells; test: Toxicity towards the host cells, Trypan blue staining, no infection; format: cell-based, human
Experimental: The determination was performed as in the previous tests but without any infection. The viability was determined with Trypan blue staining.

[7] = system: C. trachomatis; test: Direct anti-chlamydial effect on C. trachomatis, cultivation in McCoy cells; format: cell-based; details: for inhibition at 0.5 µM / inhibition at 50 µM: Chlamydia trachomatis
Experimental: C. trachomatis, cultivation in McCoy cells. The test procedure otherwise the same as with C. pneumoniae.
(§7) As the host cell of C. pneumoniae in in vitro conditions HL cells are used. As the host cells of C. trachomatis in in vitro conditions McCoy cells often are used.
as §6, §2, §3

[8] = system: C. pneumoniae K7 strain (clinical isolate); test: Direct anti-chlamydial effect (inhibition of formation of inclusions), HL host cells; format: cell-based
Excerpt: The Direct Anti-Chlamydial Effect of Plant-Derived Phenolic Compounds (As Inhibition of Formation of Inclusions)/C. pneumoniae K7 Strain (Clinical Isolate)
as §4, §5, §7, §6, §2, §3

[9] = host cells pre-treated 1 day, read-out: Inhibition % of the DMSO control (pre-treated)
[10] = read-out: Inhibition % of the DMSO control
[11] = McCoy cells pre-treated 1 day, read-out: Inhibition % of the DMSO control (pre-treated)
[12] = McCoy cells, read-out: Inhibition % of the DMSO control

O=c1c(O)c(-c2ccc(O)c(O)c2)oc2cc(O)cc(O)c12 [Quercetin]
inhibition at 20 µg/mL [1]: -54.1% | inhibition at 0.5 µM ([2]; 0.5 μM): 77% | inhibition at 50 µM ([2]; 50 μM): 90% | inhibition at 0.5 µM [3, 9]: 0% | inhibition at 0.5 µM [3, 10]: 58% | inhibition at 50 µM [3, 9]: 0% | inhibition at 50 µM [3, 10]: 76% | inhibition at 50 µM [4]: 90% | IC50 [5]: 10.7 µM | Toxicity test HL-C ([6]; 0.005 μM): 7.4% | Toxicity test HL-C (pre-treated) ([6]; 0.005 μM): 7.9% | Toxicity test HL-C ([6]; 0.05 μM): 11.7% | Toxicity test HL-C (pre-treated) ([6]; 0.05 μM): 7.2% | Toxicity test HL-C ([6]; 0.5 μM): 7.0% | Toxicity test HL-C (pre-treated) ([6]; 0.5 μM): 3.3% | Toxicity test HL-C ([6]; 5 μM): 9.2% | Toxicity test HL-C (pre-treated) ([6]; 5 μM): 8.1% | Toxicity test HL-C ([6]; 50 μM): 10.5% | Toxicity test HL-C (pre-treated) ([6]; 50 μM): 10.5% | inhibition at 0.5 µM [7, 11]: 20% | inhibition at 0.5 µM [7, 12]: 0% | inhibition at 50 µM [7, 11]: 100% | inhibition at 50 µM [7, 12]: 0% | Effect on C. trachomatis (in words) ([7]; pretreated host cells): particularly effective | inhibition at 0.5 µM ([8]; Chlamydia pneumoniae, 0.5 μM, formation of inclusions, read-out: Inhibition % of the DMSO control): 68% | inhibition at 50 µM ([8]; Chlamydia pneumoniae, 50 μM, formation of inclusions, read-out: Inhibition % of the DMSO control): 90% | Inhibition of the growth of C. pneumoniae (in words) ([8]; concentration of 0.5-50 μg): inhibited the growth
